# Source: patent publication US4956355A, “Agents for the arrest and therapy of retroviral infections” (Colthurst Limited, priority 1987, dated 1990)
# Tests used:
# [1] = test system: HIV; assay: Oral dehydroepiandrosterone sulphate in AIDS patients, T4 cell count; assay type: in vivo, human patients; conditions: patients X and Y, 300 mg once per day then 100 mg, day 5 to day 17
# Protocol: Dehydroepiandrosterone sulphate was measured into unit doses of 300 mg and 100 mg and each unit dose enclosed in a soft gelatin capsule.
# (A) A patient sero positive for HIV and diagnosed as suffering from AIDS was treated as follows. For twelve consecutive days, the patient was treated by administering the encapsulated compound orally to the patient. For the first eleven days, a unit dose of 300 mg was administered, once per day. On the twelfth day, the patient was given a single unit dose of 100 mg of the compound.
# Blood samples were taken from the patients on five occasions over the twenty-six day period. The first tests were carried out on each patient on day 1 and included measurements of T1, T4 and T8 cell counts, as well as, sedimentation rate. The treatment commenced on day 5, and continued to day 17. From day 5 to day 16, each patient, as already discussed, received a single unit dose of 300 mg of dehydroepiandrosterone sulphate orally and on day 17 100 mg was administered. The aforementioned tests were repeated on each patient on day 9, day 17, day 24 and day 26.
# [2] = test system: peripheral blood lymphocytes; assay: Nonspecific toxicity to peripheral blood lymphocytes; assay type: cell-based, human
# [3] = test system: VB T lymphoma cell line; assay: Nonspecific toxicity to VB cell line; assay type: cell-based, human; conditions: 10^-4 molar
# Protocol: (§1) 7. Analysis of nonspecific toxicity to the target cells with Compounds A and B. The VB, H9 and HXB cell lines were exposed to different concentrations of Compounds A and B as were normal human macrophages for the length of time the drug was in contact with each cell line as described in the above assays. Cell numbers were counted, and live versus dead were determined by Trypan blue exclusion assays. These tests were required to determine a therapeutic index between nonspecific toxic effects on the described cells, compared with potential effective antiviral effects in vitro (Example 6).
# (§2) Compounds A and B were tested for inhibition of T lymphoma cell cytopathic effect at various drug concentrations after acute infection with HIV for 48 hours. […] It is possible that the diminished effects noted in later experiments could have been secondary to drug stability problems.
# [4] = test system: HIV in human macrophages; assay: Inhibition of HIV production in normal human macrophages (supernatant p24, acute infection); assay type: cell-based
# Protocol: (§3) 1. […] All three viral strains were grown in the Tissue Culture Laboratory of the AIDS Activity Division of San Francisco General Hospital where titers of […] infectious units per ml were routinely achieved.
# (§4) 2. Source of cells: The VB cell line used in Example 1 is a T lymphoma cell line that is highly susceptible to infection with HIV, and expresses high levels of cell surface CD4 molecules. This cell line forms syncytia within two days after infection with all strains of HIV tested to date. […] This is used to quantitate infection in the absence of syncytial formation, infection being quantitated by immunofluorescence assays. The HXB/H9 cell line (Example 6) is an H9 cell population that chronically produces the HTLV-IIIB strain of HIV and is utilised in experiments testing antiviral effects on chronically infected cell lines. Human macrophages were prepared from peripheral blood mononuclear cells either obtained from the blood bank as a buffy coat, or as a leukophoresis preparation. Crowe et al. supra have devised an assay system that allows quantitation of HIV infection, and inhibition of infection using immunocytofluorographic analysis. In order to quantitate HIV infection in macrophages, they grow macrophages in Teflon (Trade Mark) culture vessels which maintain macrophages in suspension in vitro culture for up to six months. Cell surface and cytoplasmic immunofluorescence staining is then performed to quantitate antigens in macrophages by flow cytometry.
# (§5) 4. HIV soluble p24 antigen detection: Soluble p24 antigens were measured with the Abbott HIV antigen detection system.
# (c) To test whether Compounds A and B were effective at blocking acute infection of macrophages, macrophages from Teflon cultures were exposed at a multiplicity of 1 to HIV-DV in the presence or absence of various concentrations of drug (Examples 3-5). Normally, HIV expression peaks in human macrophages at approximately ten days after initial infection. Therefore, after infection for one hour at room temperature, followed by a wash and resuspension of the macrophages in various drug concentrations, macrophages were stained for the presence of p24 antigen at day ten. Culture supernatants from these macrophages were assayed for the presence of soluble p24, and infectious virus as described above.
# To test whether compounds A and B might be active at inhibiting infection of normal human macrophages, a spectrum of drug concentrations were tested for inhibition of acute infection, and inhibition of HIV expression in chronically infected macrophages. […] After acute infection (one hour) cells were incubated in various concentrations of compounds A and B, and 7 days after the initial infection supernatants were harvested for p24 antigen quantitation. […]
# [5] = test system: HXB cell line; assay: Killing of HXB cells; assay type: cell-based, human; conditions: 10^-4 molar
# Protocol: as §1
# [6] = test system: HIV in human macrophages; assay: Inhibition of cytoplasmic HIV p24 antigen in HIV-infected macrophages; assay type: cell-based; conditions: 10^-4 molar; three donors; FIG. 4
# Protocol: as §3, §4
# 3. Flow cytometry: An Ortho Cytofluorgraf II-S (Trade Mark) that has a biohazard containment flow cell was used for analysis of HIV infected samples. HIV p24 antigens were detected utilizing a mouse monoclonal anti-p24 (du Pont), and mouse antibodies were identified utilizing an FITC conjugated goat anti-mouse IgG. […]
# The cells from the experiment described in Example 3 were analysed, and the cytoplasm was analysed for the presence of HIV p24 to directly test whether HIV p24 antigen production was inhibited within those infected cells. […]
# [7] = test system: HIV in activated peripheral blood lymphocytes; assay: Inhibition of HIV mediated cytopathic effects / p24 antigen production in activated peripheral blood lymphocytes; assay type: cell-based; conditions: for p24 antigen production: activated PBL, about 7 days after infection, FIG. 2
# Protocol: as §3, §5
# (b) Although the VB T lymphoma cell line behaves in a similar manner to peripheral blood CD4 positive T lymphocytes in regard to HIV induced cytopathic effects, the above described experiments were performed on phytohemagglutinin (PHA) activated lymphocytes to determine whether lymphocytes are more or less sensitive to Compounds A and B than is the VB cell line. In this assay system, at the time that multinucleated giant cells appeared within infected lymphocyte cultures, the supernatants were analyzed for the presence of HIV p24 antigens and were titered on indicator VB lymphoma cells to determine the titer of infectious virus present at each point.
# To test whether the effects of compounds A and B on acute VB T lymphoma infection would be mimicked by activated peripheral blood lymphocytes (PBC), HIV at a multiplicity of infection of one was added to lymphocytes that had been activated for 48 hours with 2 μg per ml of PHA. After the initial infection for one hour, the activated lymphocytes were washed and resuspended for the one week of culture. Multinucleated giant cells began to form approximately 7 days after the initial infection, at which time the culture supernatants were harvested and tested for the presence of HIV p24 antigens. The accumulation of HIV p24 antigens in the supernatant is representative of production of HIV from infected cells.
# [8] = test system: HIV in VB T lymphoma cell line; assay: Inhibition of HIV mediated cytopathic effects (multinucleated giant/syncytial cell formation) in acutely infected VB tumor cell line; assay type: cell-based
# Protocol: as §3, §4
# 5. Inhibition of acute infection: Several assays were utilized to test for inhibition of acute infection; these included:
# (a) Inhibition of multinucleated giant cell formation in acutely infected VB cells infected at a multiplicity of infection of 1, and scored two days after infection in the presence or absence of varying concentrations of drug, for the formation of multinucleated giant cells. (free virus is washed out after a one hour incubation pretreatment at room temperature). […] Supernatants were also isolated and the level of HIV p24 antigen determined. Infectious virus was measured in treated cultures by performing a syncytial assay as described above.
# as §2
# [9] = test system: normal human macrophages; assay: Nonspecific toxicity to normal human macrophages; assay type: cell-based
# Protocol: as §1
# [10] = test system: HIV in HXB/H9 cell line; assay: Antiviral testing of chronically HIV infected cell line HXB; assay type: cell-based; conditions: other than killing with compound B at 10^-4 molar
# Protocol: as §3
# as §4, with “Human macrophages were prepared from peripheral blood mononuclear cells either obtained from the blood bank as a buffy coat, or as a leukophoresis preparation.” left out, “cytometry. […]” for “cytometry.”
# [11] = test system: HIV in chronically infected human macrophages; assay: Antiviral testing of chronically HIV infected macrophages; assay type: cell-based
# Text: as §4
# 3. Flow cytometry: An Ortho Cytofluorgraf II-S (Trade Mark) that has a biohazard containment flow cell was used for analysis of HIV infected samples. HIV p24 antigens were detected utilizing a mouse monoclonal anti-p24 (du Pont), and mouse antibodies were identified utilizing an FITC conjugated goat anti-mouse IgG.
# 6. Analysis of chronically infected cells: To determine whether compounds A and B are effective at inhibiting HIV expression in macrophages and chronically infected T cells, the following experiments were performed. The chronically infected T cell line, HXB/H9 was exposed to various concentrations of drug for four days in vitro. At four days, the HXB cells were assayed for the presence of p24 intracytoplasmically, and supernatants were assayed for the presence of infectious virus as described above.
# Because macrophages can be infected and produce HIV for very long periods of time without substantial loss of viability, chronically infected cells were tested, specifically a population that was between 30 and 50% HIV antigen positive, for inhibition of cytoplasmic HIV p24 antigen production. FIG. 5 indicates the results of three separate experiments carried out.
# [12] = test system: tumor cell lines; assay: Toxicity to tumor cell lines, Examples 1 to 7; assay type: cell-based, human; conditions: 10^-4 molar; all experiments of Examples 1 to 7
# Protocol: as §1
compound,measurement,setting,value
C[C@]12CC[C@H](OS(=O)(=O)O)CC1=CC[C@@H]1[C@@H]2CC[C@]2(C)C(=O)CC[C@@H]12 [dehydroepiandrosterone sulphate],T4 cell count,[1],stabilise
"C[C@]12CC[C@H](O)C[C@@H]1CC[C@@H]1[C@@H]2CC[C@]2(C)C(=O)[C@H](Br)C[C@@H]12 [B, 16α-bromoepiandrosterone]",toxicity with the PBL cultures,[2]; 10^-4 and 10^-5 molar,No appreciable toxicity
same,"extreme toxicity seen in VB cells, in normal peripheral blood lymphocytes",[2]; 10^-4 molar,not shared by either the normal peripheral blood lymphocytes or macrophages
same,toxicity to peripheral blood lymphocytes,[2]; 10^-4 to 10^-8 molar,nor was there appreciable toxicity
same,toxicity to VB T lymphoma cell line,[3],extremely toxic
same,decrease in production of HIV p24 antigens (supernatant),"[4]; 10^-4 through 10^-8 molar, 7 days after acute infection, FIG. 3",approximately 50%
same,HIV infection and HIV expression in macrophages,"[4]; in vitro, reproducible, six separate monocyte/macrophage donors",inhibit HIV infection and HIV expression in macrophages
same,killing of HXB cells,[5],killing
same,HIV p24 cytoplasmic antigen production,[6],substantially inhibited
same,p24 antigen production,[7]; 10^-4 molar,moderately inhibited
same,p24 antigen production,[7]; 10^-5 molar,slightly less inhibited
same,"antiviral effects in comparison with AZT, lymphocytes",[7]; acute infection,inferior
same,antiviral effect in acute infection studies of lymphocytes,"[7]; acute infection, conclusions",mild antiviral effect
same,"inhibition of HIV mediated multinucleated syncytial cell formation, compared with compound A","[8]; VB cells, acute infection, 48 hours, FIG. 1, average of two experiments",more active
same,"antiviral effects in comparison with AZT, T lymphoma cells",[8]; acute infection,inferior
same,antiviral effect in acute infection studies of T lymphoma cells,"[8]; acute infection, conclusions",mild antiviral effect
same,inhibition of cytopathic effect in two subsequent experiments,"[8]; compounds diluted in DMSO, possibly secondary to drug stability problems",less striking effect
same,"extreme toxicity seen in VB cells, in macrophages",[9]; 10^-4 molar,not shared by either the normal peripheral blood lymphocytes or macrophages
same,toxicity in normal macrophages,[9]; 10^-4 to 10^-8 molar,not appreciable toxicity
same,inhibition of HIV production of cytopathic effects in chronically infected lymphoma cell line,[10],no specific inhibition
same,inhibition compared with inhibition of acute infection of macrophages,"[11]; 10^-4 and 10^-5 molar, FIG. 5 vs FIG. 4",somewhat less than the inhibition of acute infection of macrophages
same,inhibition of cytoplasmic HIV p24 antigen production in chronically infected macrophages,"[11]; both 10^-4 and 10^-5 molar, three experiments, FIG. 5",some inhibition
same,toxicity to tumor cell lines,[12],appreciable toxicity
